Where two headings read alike, the source gives them in different places. No end group written: not given here.
Tests used:
mice [1] = assay: Acute hypercalcemia induced by PTHrP-(1-34) challenge, antagonist given SC, blood ionized calcium; type: in vivo; conditions: 0.5 mg/kg SC, vehicle-treated mice
Method: Normal male mice were injected SC with vehicle (PBS, circles) or with human PTHrP-(1-34) at 0.5 mg/kg (squares). PTHrP-challenged mice were then immediately injected SC with [Asn10,Leu11]PTHrP-(7-34)-Fc at 10 mg/kg (triangles) or 30 mg/kg (diamonds). Data represent group means, with an n of 6 mice/group.
We have cloned, expressed and purified [Asn10,Leu11]PTHrP-(7-34)-Fc. We tested the ability of this compound to antagonize both acute and chronic hypercalcemia responses in mice. PTHrP-(1-34) was used as a calcemic agent to evaluate the acute effects of [Asn10,Leu11]PTHrP-(7-34)-Fc. Because PTHrP is the principal mediator of HHM, this study also represents a model for hypercalcemia-inducing tumors. Briefly, blood ionized calcium (BIC) was measured at baseline, and mice were then challenged with vehicle (PBS) or with PTHrP-(1-34) (0.5 mg/kg) by SC injection. Mice were then treated once SC with varying doses of [Asn10,Leu11]PTHrP-(7-34)-Fc, or with vehicle (PBS). In vehicle-treated mice challenged with PTHrP-(1-34), a transient hypercalcemic response was observed. The peak calcemic response occurred at 3 h post challenge, and persisted until at least 6 h post challenge.

mice [2] = assay: Mouse bioassay: SC injection days 0, 5, 10; clinical chemistry (calcium, AP, TRAP) and tibial pQCT; type: in vivo; conditions: for serum TRAP (osteoclast marker) / calcemic potency among the 3 Fc peptides: mice; for serum TRAP (osteoclast marker): after single SC injection; for calcemic potency among the 3 Fc peptides: serum calcium
Method: Peripheral blood was obtained daily for 3 days following single subcutaneous injections of the indicated compounds.
Peripheral quantitative computed tomography (pQCT) was performed on the proximal tibial metaphysis of mice on day 15, after injections of PTH constructs on day 0, 5 and 10.
We then tested the effects of PTH-(1-34), PTH-(1-34)-Fc, PTH-(1-31)-Fc and PTH-(1-30)-Fc in mice. Four week old male mice were injected on days 0, 5, and 10 with vehicle or with PTH fragments, by SC injection. Peripheral blood was obtained for clinical chemistry at 24, 48, and 72 h. Mice were killed on day 15, vertebrae, tibiae and femurs were harvested for histology and one tibia was collected for bone density measurements (peripheral quantitative computed tomography, pQCT). Clinical chemistry endpoints included total serum calcium, serum alkaline phosphatase (AP, a marker of osteoblast activity), and serum tartrate-resistant acid phosphatase (TRAP, a marker of osteoclast activity). For each animal, the ratio of AP:TRAP was calculated as an index of relative osteoblast activity compared to osteoclast activity. A higher AP:TRAP ratio would indicate a potentially more anabolic agent.

[3] = system: aged ovariectomized (OVX) rats; assay: Monotherapy in aged ovariectomized (OVX) rats: twice-weekly treatment, BMD by DEXA and serum calcium; type: in vivo
Method: Eleven months after OVX, rats were treated twice per week with phosphate-buffered saline (PBS, vehicle) or with APD (0.5 mg/kg) or with PTH-(1-34)-Fc (50 nmol/kg). DEXA was performed weekly. Blood was drawn 24 hours after the second weekly injection, when the calcemic effects of PTH-Fc are typically maximal. The effects of PTH-Fc administration on lumbar BMD (FIG. 11A), tibia/femur BMD (FIG. 11B), femoral metaphysis BMD (FIG. 11C), and serum calcium (FIG. 11D) were determined.
Sprague Dawley rats were OVX'd at 3 months of age and allowed to lose bone for 11 months. Other rats were sham-operated and treated twice per week with vehicle (PBS). OVX rats were treated twice per week with SC injections of either vehicle or the bisphosphonate APD (pamidronate, 0.5 mg/kg), or with PTH-(1-34)-Fc (50 nmol/kg) or with APD+PTH-(1-34)-Fc. BMD was determined weekly via dual energy X-ray absorptiometry (DEXA). Rats were sacrificed after 4 weeks of treatment. At the start of treatment, OVX rats had significant reductions in BMD at all skeletal sites analyzed, compared to vehicle-treated […] (FIG. 11, p<0.05, 2-way ANOVA).

PTH-1 receptor = target: T1, PTH-1 receptor (Homo sapiens, UniProt Q03431); conditions: cited from earlier work
T1 sequence (Q03431 27-593): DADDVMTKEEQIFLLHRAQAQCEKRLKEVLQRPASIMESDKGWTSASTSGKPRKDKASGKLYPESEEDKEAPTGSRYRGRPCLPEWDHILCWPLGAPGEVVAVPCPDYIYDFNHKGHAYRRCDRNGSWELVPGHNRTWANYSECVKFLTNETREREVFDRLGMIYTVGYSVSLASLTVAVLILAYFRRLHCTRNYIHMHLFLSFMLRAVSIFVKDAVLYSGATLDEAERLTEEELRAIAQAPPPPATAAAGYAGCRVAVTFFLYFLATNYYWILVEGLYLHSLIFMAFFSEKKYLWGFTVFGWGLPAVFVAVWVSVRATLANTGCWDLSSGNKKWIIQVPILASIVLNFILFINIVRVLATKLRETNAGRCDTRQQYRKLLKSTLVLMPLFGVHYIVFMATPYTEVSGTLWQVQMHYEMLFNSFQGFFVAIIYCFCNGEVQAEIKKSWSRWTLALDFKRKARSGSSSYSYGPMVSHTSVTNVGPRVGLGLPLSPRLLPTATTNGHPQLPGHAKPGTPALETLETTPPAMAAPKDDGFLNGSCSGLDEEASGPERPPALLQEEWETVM

healthy humans = conditions: infusion, unlike PTH-(1-34); cited from earlier work
rat PTH-1 receptor = target: T2, rat PTH-1 receptor (Rattus norvegicus, UniProt P25961); conditions: cited from earlier work
T2 sequence (P25961 27-591): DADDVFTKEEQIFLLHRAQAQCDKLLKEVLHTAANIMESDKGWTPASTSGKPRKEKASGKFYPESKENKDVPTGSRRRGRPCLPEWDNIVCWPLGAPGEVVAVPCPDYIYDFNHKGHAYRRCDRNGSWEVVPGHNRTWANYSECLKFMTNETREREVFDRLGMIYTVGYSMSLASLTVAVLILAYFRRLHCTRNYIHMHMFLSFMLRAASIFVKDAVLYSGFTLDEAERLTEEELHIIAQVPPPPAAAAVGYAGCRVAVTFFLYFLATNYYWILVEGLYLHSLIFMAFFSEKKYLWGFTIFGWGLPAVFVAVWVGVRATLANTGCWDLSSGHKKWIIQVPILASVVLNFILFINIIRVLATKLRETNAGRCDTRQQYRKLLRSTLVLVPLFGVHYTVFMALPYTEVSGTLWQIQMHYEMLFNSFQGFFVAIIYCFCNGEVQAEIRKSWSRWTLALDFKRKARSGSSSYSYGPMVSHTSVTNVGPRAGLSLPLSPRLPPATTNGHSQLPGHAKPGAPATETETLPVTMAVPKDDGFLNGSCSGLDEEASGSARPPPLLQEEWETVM

OVX rats = conditions: cited from earlier work
[4] = in vivo, circulating; cited from earlier work
[5] = 100 nmoles/kg on day 0, 5, 10, pQCT day 15

For human PTHrP(1-34) [PTHrP-(1-34)], the “persistence of calcemic response post challenge” value (mice [1]) was “at least 6 h” and the “time of peak calcemic response post challenge” value (mice [1]) was 3 h.

In the case of “PTH-(1-31)-Fc: PTH (1-31), SVSEIQLMHNLGKHLNSMERVEWLRKKLQDV, linked at its C-terminus to an Fc domain”, the “bone mineral density (proximal tibial metaphysis)” value (from here on “bone mineral density”) (mice [2]; [5]) is reported as “no effect”, the “serum AP (osteoblast marker)” value (mice [2]; 300 nmoles/kg (given for PTH-(1-34)-Fc), 72 h) is reported as “significantly elevated” and the “calculated AP:TRAP ratio” value (mice [2]; high dose 1,000 nmoles/kg) is reported as “decreased”. The toxicity (mice [2]; higher doses 300-1,000 nmoles/kg) was “significant hypercalcemia-related toxicity”, the “calculated AP:TRAP ratio” value (mice [2]; low dose 100 nmoles/kg) was “increased” and the “serum TRAP (osteoclast marker)” value (mice [2]) was “dramatically increased”. For the same compound, the “calcemic potency among the 3 Fc peptides” value (mice [2]) was “more potent calcemic agent”.

With `NCCC(O)(P(=O)(O)O)P(=O)(O)O` [APD, pamidronate, reference compound] the “BMD at any skeletal site compared to vehicle-treated OVX rats” value ([3]; 0.5 mg/kg twice per week) was “did not significantly increase BMD” and the “effect of co-administration on calcemic effect of PTH-(1-34)-Fc” value ([3]; APD 0.5 mg/kg co-administered) was “completely blocked the calcemic effect”.

In the case of human PTH(1-31) [hPTH-(1-31)], the “reduction of affinity for PTH-1 receptor compared to hPTH-(1-34)” value (PTH-1 receptor) is listed as 1-6 fold and the “serum calcium, plasma 1,25(OH)2D3, urinary N-TX levels” value (healthy humans) is listed as “failed to elevate”.

For “human PTH(1-30) (SVSEIQLMHNLGKHLNSMERVEWLRKKLQD; listed as Homo sapiens) [hPTH-(1-30)]”, the “reduction of affinity for PTH-1 receptor compared to hPTH-(1-34)” value (PTH-1 receptor) is listed as 10-100 fold and the PLC activation (rat PTH-1 receptor) is listed as “weak and incomplete agonist”.

For “PTH-(1-30)-Fc: PTH (1-30), SVSEIQLMHNLGKHLNSMERVEWLRKKLQD, linked at its C-terminus to an Fc domain (SVSEIQLMHNLGKHLNSMERVEWLRKKLQD-{Fc domain})”, the serum calcium (mice [2]; 100 nmoles/kg) was “failed to significantly increase serum calcium”, the “bone mineral density” value (mice [2]; [5]) was “greatest effect” and the “serum AP (osteoblast marker)” value (mice [2]; 1,000 nmoles/kg) was “greatest elevation”. The “time of peak serum AP after injection” value (mice [2]; 1,000 nmoles/kg) was 72 h, the “bone mineral density” value (mice [2]; 1,000 nmoles/kg on day 0, 5, 10, pQCT day 15) was “least effect” and the BMD versus controls (mice [2]; all doses (100-1,000 nmoles/kg), pQCT day 15) was “greater than in controls”. The “calculated AP:TRAP ratio” value (mice [2]; high dose 1,000 nmoles/kg) was “greatest increase”, the “serum TRAP (osteoclast marker)” value (mice [2]) was “not significantly changed” and the “calcemic potency among the 3 Fc peptides” value (mice [2]) was “least calcemic”. For the same compound, the “increase in bone density compared with the other PTH constructs” value (mice [2]; pQCT day 15) was “greatest increase in bone density”.

For “human PTH(1-28) (SVSEIQLMHNLGKHLNSMERVEWLRKKL; listed as Homo sapiens) [PTH-(1-28)]”, the anabolic effect (OVX rats; 200 μg/kg/day) is given as “ineffective” and the anabolic effect (OVX rats; 1,000 μg/kg/day) is given as “anabolic”.

For Parathyroid hormone [PTH], the half-life [4] is given as “less than 1 h”.
